Test results published in US20250051375A1, “ANTI-HIV COMPOUNDS” (Gilead Sciences, Inc., priority 2023, published 2025).
In brackets after ≈: the same amount, converted by molar mass. Read-outs that look alike come from different tables or passages of the source.

Key:
[1] = Intestinal S9 Assay (dog GI S9); type: in vitro ADME; settings: 1.0 mg/mL S9 protein; for half-life at 2 μM: dog, TRIS pH 7.4, read-out: Dog GI S9 T½; for Dog GI S9 [Intermediate A] / Dog GI S9 [Intermediate A] %: 2 μM, TRIS pH 7.4
Description: (§1) Reagents. Stock solutions of test compounds in dimethyl sulfoxide (DMSO) having a final concentration of 10 mM were prepared and used in all experiments. Sekisui XenoTech (Kansas City, KS) provided pooled intestinal S9 fractions. All other chemicals were purchased from Sigma-Aldrich (St. Louis, MO) or VWR (West Chester, PA). Internal Standard/Quench (IS/Q) used to stop reactions was 100 nM labetalol in (by volume) formic acid (1%) and acetonitrile (99%).
(§2) Intestinal S9 Assay: For each test compound, an aliquot of the test compound was added to S9 stock diluted with TRIS buffer (100 mM TRIS, 1 mM ZnCl2, 1 mM MgCl2), pH 7.4, to obtain an incubation protein concentration of 1.0 mg/mL. The incubation was initiated by the addition of the substrate to the S9 reaction mixture to a final concentration of 2 μM. At 0, 10, 20, 30, 60 and 120 min, 25 μL aliquots of the reaction mixture were transferred to plates containing 225 μl of IS/Q solution. After quenching, the plates were centrifuged at 3000×g for 30 minutes. 150 μL aliquots of each supernatant were transferred to new plates and 150 μL water was added. Aliquots (10 μL) of the prepared samples were analyzed on a Thermo Q-Exactive mass spectrometer as described below.
(§3) Liquid Chromatography-Mass Spectrometry: Quantification of test compounds and control substrate was performed by analyte/internal standard peak area ratio (PAR) values measured on a Thermo Q-Exactive mass spectrometer coupled to a Dionex UltiMate 3000 HPLC with a Leap Technologies HTC PAL autosampler. The column used for analysis was a Thermo Scientific Hypersil GOLD (1.9 μm particle size, 50×2.1 mm). Mobile phase A consisted of 0.1% (v/v) formic acid in water. Mobile phase B consisted of 0.1% (v/v) formic acid in acetonitrile. Elution of analytes was achieved by a series of linear gradients varying the proportions of A and B. The mass spectrometer was calibrated on a weekly basis and mass tolerance of 5 ppm was used.
(§4) Data Analysis. Metabolic stabilities were determined by measuring the rates of disappearance of test compound and positive control substrate. Data (% of substrate remaining) were plotted on a semi-log scale and fitted using an exponential decline model:
(§5) where • Ct% of substrate remaining at time=t • C0% of substrate remaining at time=0 • t time • T½ half-life • The Half-life (T½) is determined by the following equation:
(§6) [formula] • Assuming a first-order reaction, the slope (k) is extrapolated from the aforementioned plotted data.

[2] = Intestinal S9 Assay (human GI S9); type: in vitro ADME; settings: 1.0 mg/mL S9 protein; for half-life at 2 μM: human, TRIS pH 7.4, read-out: Human GI S9 T½; for Human GI S9 [Intermediate A] / Human GI S9 [Intermediate A] %: 2 μM, TRIS pH 7.4
Description: as §1, §2, §3, §4, §5, §6

[3] = target: bovine intestinal alkaline phosphatase (Bos taurus (Bovine), UniProt P19111); assay: BiALP: conversion by bovine intestinal alkaline phosphatase; type: in vitro ADME; settings: 2 μM substrate, 100 ng/mL iALP, Tris pH 7.8, 37° C., 60 minutes; for [Intermediate A] or [Amprenavir]: parent formed
Chain of bovine intestinal alkaline phosphatase (P19111 20-506): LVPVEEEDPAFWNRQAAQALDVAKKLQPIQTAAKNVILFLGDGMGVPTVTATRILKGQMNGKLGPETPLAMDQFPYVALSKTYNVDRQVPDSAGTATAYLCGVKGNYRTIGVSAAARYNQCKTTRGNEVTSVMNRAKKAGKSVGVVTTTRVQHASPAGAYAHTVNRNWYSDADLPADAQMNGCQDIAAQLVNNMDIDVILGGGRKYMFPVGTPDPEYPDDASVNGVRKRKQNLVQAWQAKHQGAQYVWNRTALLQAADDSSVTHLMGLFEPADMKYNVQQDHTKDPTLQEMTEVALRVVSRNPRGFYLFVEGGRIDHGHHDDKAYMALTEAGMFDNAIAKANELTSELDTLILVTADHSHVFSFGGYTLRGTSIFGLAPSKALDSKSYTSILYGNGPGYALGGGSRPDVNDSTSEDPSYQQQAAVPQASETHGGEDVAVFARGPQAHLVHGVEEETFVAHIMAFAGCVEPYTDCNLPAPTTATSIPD
In short: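 LC-MS (positive mode) quantified analyte/internal-standard peak area ratios, referenced to 2 μM parent product. This followed a 60 min, 37° C reaction of 2 μM substrate in Tris buffer pH 7.8 (1 mM MgCl2, 1 mM ZnCl2) containing 100 ng/mL iALP or buffer alone, run in triplicate.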

PBS Stability Assay = type: physicochemical; settings: buffer, pH 7.4, 2 μM, phosphate buffered saline pH 7.4; read-out: PBS T½
In short: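 Half-life derives from first-order exponential decline of % compound remaining, quantified by LC-MS analyte/internal-standard peak-area ratio. Compound (2 μM final) sat in pH 7.4 phosphate-buffered saline, with aliquots quenched into acidified acetonitrile containing labetalol from 0 to 120 min.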

HIV-1 IIIB strain = assay: MT-4 HIV Wild Type Virus Infection Assay (IIIB Virus); type: cell-based; settings: Human immunodeficiency virus 1, IIIB, MT4, 120 h, MT-4 cells acutely infected with HIV-1 IIIB, 5 day incubation, Cell-titer glo
In short: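 MT-4 cells at 2×10^6 cells/ml in RPMI/10% FBS were acutely infected with HIV-1 IIIB for 1 h at 37° C, diluted 25× and added to serially diluted compounds. After 5 days at 37° C, viability read by CellTiter-Glo luminescence; EC50 from dose-response curves.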

physchem = settings: 23 °C, pH 6.5, fassif, thermodynamic from solid; for solubility: FaSSIF (pH 6.5) solubility, FaSSIF pH 6.5, dose 5 mg/mL, 2-hour incubation, ambient temperature
In short: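 Concentration measured by HPLC-UV after solid compound was dosed at 5 mg/mL into pH 6.5 fasted-state simulated intestinal fluid containing taurocholate and lecithin (4:1 molar) and vortexed.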

| SMILES | half-life at 2 μM [1] | half-life at 2 μM [2] | [Compound] [3] | half-life at 2 μM (PBS Stability Assay) | EC50 (HIV-1 IIIB strain; read-out: EC50) | solubility (physchem) | Dog GI S9 [Intermediate A] [1] | Dog GI S9 [Intermediate A] % [1] | Human GI S9 [Intermediate A] [2] | Human GI S9 [Intermediate A] % [2] | biALP Intermediate A or [Amprenavir] (% of total) [3] | [Intermediate A] or [Amprenavir] [3] | solubility at 2 h (physchem) | EC50 (HIV-1 IIIB strain) |
| --- | --- | --- | --- | --- | --- | --- | --- | --- | --- | --- | --- | --- | --- | --- |
| COC(=O)N[C@H](C(=O)N[C@@H](Cc1ccc(C#Cc2cnc(N3CC4CCC(C3)N4C3COC3)nc2)cc1)[C@H](CN(Cc1c(F)cc(-c2ccn(C(F)F)n2)cc1F)NC(=O)[C@@H](NC(=O)OC)C(C)(C)C(F)(F)F)OC(=O)CC(C)(C)c1c(C)cc(C(=O)O)cc1OP(=O)(O)O)C(C)(C)C(F)(F)F [Example 3, 4-((5S,10S)-8-(4-(1-(difluoromethyl)-1H-pyrazol-3-yl)-2,6-difluorobenzyl)-14-methyl-10-((1S)-2-(4-((2-(8-(oxetan-3-yl)-3,8-diazabicyclo[3.2.1]octan-3-yl)pyrimidin-5-yl)ethynyl)phenyl)-1-((S)-4,4,4-trifluoro-2-((methoxycarbonyl)amino)-3,3-dimethylbutanamido)ethyl)-3,6,12-trioxo-5-(1,1,1-trifluoro-2-methylpropan-2-yl)-2,11-dioxa-4,7,8-triazapentadecan-14-yl)-3-methyl-5-(phosphonooxy)benzoic acid] | 0.685 h | 1.98 h | 1197.7 nM | 4.19 h | 96.6 nM |  |  |  |  |  |  |  |  |  |
| COC(=O)N[C@H](C(=O)N[C@@H](Cc1ccc(C#Cc2cnc(N3CC4CCC(C3)N4C3COC3)nc2)cc1)[C@H](CN(Cc1c(F)cc(-c2ccn(C(F)F)n2)cc1F)NC(=O)[C@@H](NC(=O)OC)C(C)(C)C(F)(F)F)OC(=O)CC(C)(C)c1c(CC(=O)O)cc(C)cc1OP(=O)(O)O)C(C)(C)C(F)(F)F [Example 4] | 1.69 h | 7.74 h | 1627.4 nM | 9.43 h | 20.7 nM | 272 µg/mL (≈ 183 µM) |  |  |  |  |  |  |  |  |
| COC(=O)N[C@H](C(=O)N[C@@H](Cc1ccc(C#Cc2cnc(N3CC4CCC(C3)N4C3COC3)nc2)cc1)[C@H](CN(Cc1c(F)cc(-c2ccn(C(F)F)n2)cc1F)NC(=O)[C@@H](NC(=O)OC)C(C)(C)C(F)(F)F)OC(=O)CC(C)(C)c1c(CC(=O)O)cccc1OP(=O)(O)O)C(C)(C)C(F)(F)F [Example 5, 2-(2-((5S,10S)-8-(4-(1-(difluoromethyl)-1H-pyrazol-3-yl)-2,6-difluorobenzyl)-14-methyl-10-((1S)-2-(4-((2-(8-(oxetan-3-yl)-3,8-diazabicyclo[3.2.1]octan-3-yl)pyrimidin-5-yl)ethynyl)phenyl)-1-((S)-4,4,4-trifluoro-2-((methoxycarbonyl)amino)-3,3-dimethylbutanamido)ethyl)-3,6,12-trioxo-5-(1,1,1-trifluoro-2-methylpropan-2-yl)-2,11-dioxa-4,7,8-triazapentadecan-14-yl)-3-(phosphonooxy)phenyl)acetic acid] | 0.74 h | 11.6 h | 1638.1 nM | 7.62 h | 73.7 nM | < 1000 µg/mL |  |  |  |  |  |  |  |  |
| COC(=O)N[C@H](C(=O)N[C@@H](Cc1ccc(C#Cc2cnc(N3CC4CCC(C3)N4C3COC3)nc2)cc1)[C@H](CN(Cc1c(F)cc(-c2ccn(C(F)F)n2)cc1F)NC(=O)[C@@H](NC(=O)OC)C(C)(C)C(F)(F)F)OC(=O)CC(C)(C)c1c(CC(=O)N[C@@H](CCC(=O)O)C(=O)O)cccc1OP(=O)(O)O)C(C)(C)C(F)(F)F [Example 6] | 0.393 h | 2.57 h | 1304.1 nM | 10.9 h |  |  | 1236 nM | 93.8% | 363.6 nM | 28.2% | 19 % of total | 306.6 nM | 3710 µg/mL (≈ 2320 µM) | 20.7 nM |
| COC(=O)N[C@H](C(=O)N[C@@H](Cc1ccc(C#Cc2cnc(N3CC4CCC(C3)N4C3COC3)nc2)cc1)[C@H](CN(Cc1c(F)cc(-c2ccn(C(F)F)n2)cc1F)NC(=O)[C@@H](NC(=O)OC)C(C)(C)C(F)(F)F)OC(=O)CC(C)(C)c1c(CC(=O)NCC(=O)O)cccc1OP(=O)(O)O)C(C)(C)C(F)(F)F [Example 7] | 0.457 h | 2.27 h | 1590.8 nM | 8.72 h |  |  | 1224.2 nM | 91% | 404.7 nM | 31.3% | 9.4 % of total | 164.7 nM | 5490 µg/mL (≈ 3590 µM) | 23.2 nM |
| COC(=O)N[C@H](C(=O)N[C@@H](Cc1ccc(C#Cc2cnc(N3CC4CCC(C3)N4C3COC3)nc2)cc1)[C@H](CN(Cc1c(F)cc(-c2ccn(C(F)F)n2)cc1F)NC(=O)[C@@H](NC(=O)OC)C(C)(C)C(F)(F)F)OC(=O)CC(C)(C)c1c(CC(=O)N2CC[C@@H]2C(=O)O)cc(C)cc1OP(=O)(O)O)C(C)(C)C(F)(F)F [Example 9] | 1.14 h | 8.93 h | 2004.9 nM | 10.4 h |  |  |  |  |  |  | 1.8 % of total | 36.5 nM | 2300 µg/mL (≈ 1470 µM) | 241 nM |
| COC(=O)N[C@H](C(=O)N[C@@H](Cc1ccc(C#Cc2cnc(N3CC4CCC(C3)N4C3COC3)nc2)cc1)[C@H](CN(Cc1c(F)cc(-c2ccn(C(F)F)n2)cc1F)NC(=O)[C@@H](NC(=O)OC)C(C)(C)C(F)(F)F)OC(=O)CC(C)(C)c1c(CC(=O)N2C[C@@H](C(=O)O)C[C@H]2C(=O)O)cc(C)cc1OP(=O)(O)O)C(C)(C)C(F)(F)F [Example 10] | 4.24 h | 9.22 h | 1868.8 nM | 9.92 h |  |  | 228.1 nM | 18.4% | 86.8 nM | 7.3% | 4.9 % of total | 95.5 nM | 3120 µg/mL (≈ 1920 µM) | 418 nM |
| COC(=O)N[C@H](C(=O)N[C@@H](Cc1ccc(C#Cc2cnc(N3CC4CCC(C3)N4C3COC3)nc2)cc1)[C@H](CN(Cc1c(F)cc(-c2ccn(C(F)F)n2)cc1F)NC(=O)[C@@H](NC(=O)OC)C(C)(C)C(F)(F)F)OC(=O)CC(C)(C)c1c(CC(=O)N[C@@H](CS(=O)(=O)O)C(=O)O)cc(C)cc1OP(=O)(O)O)C(C)(C)C(F)(F)F [Example 32] | 1 h | 3.87 h |  | 5.18 h |  |  |  |  |  |  |  |  | 3400 µg/mL (≈ 2080 µM) | 137 nM |
| COC(=O)N[C@H](C(=O)N[C@@H](Cc1ccc(C#Cc2cnc(N3CC4CCC(C3)N4C3COC3)nc2)cc1)[C@H](CN(Cc1c(F)cc(-c2ccn(C(F)F)n2)cc1F)NC(=O)[C@@H](NC(=O)OC)C(C)(C)C(F)(F)F)OC(=O)CC(C)(C)c1c(CC(=O)Nc2cccc(S(=O)(=O)O)c2)cc(C)cc1OP(=O)(O)O)C(C)(C)C(F)(F)F [Example 105] | 4.85 h | 9.3 h | 1626.1 nM | 5.51 h |  |  |  |  |  |  |  |  |  | 217 nM |
